Results reported in patent US9096608B2, “Pharmaceutically active pyrazolo-triazine derivatives” (LEAD DISCOVERY CENTER GMBH, priority 2012, dated 2015).
Read-outs that look alike come from different tables or passages of the source.

What was measured:
Format in all cases: biochemical
CDK2/CycA = molecular target: T1, CDK2/CycA (Homo sapiens, UniProt P24941); experiment: CDK2 Enzymatic Activity Assay (Lance Kinase Activity Assay, FRET); conditions: for CDK2 IC50 range class: Table 5B, symbols per IC50 ranges of b615
T1 construct: purchased Proqinase
Experimental: (§1) This protocol describes how the Lance Kinase Activity Assay was performed to determine IC50 values of compounds of general formula (I) against CDK/Cyclin complexes. The principle behind this enzymatic assay is based upon the phosphorylation of the Ulight-Peptide Substrat. It is detected by using a specific EU-labeled anti-phospho peptide antibody.
(§2) Binding of an inhibitor to the kinase prevents phosphorylation of the ULlight-MBP Substrat, resulting in a loss of FRET.
CDK2 Enzymatic Activity Assay
(§3) The compounds of general formula (I) exemplary summarized in Table 1 were diluted from a 10 mM DMSO stock solution 1:10 in a total volume of 15 μl DMSO. This compound predilution was then serial diluted 1:3 over 8 steps in DMSO and briefly spun down. Each compound solution was now diluted 1:20 in Enzymatic Buffer (HEPES: 50 mM, pH: 7.5; MgCl2: 10 mM; EGTA: 1 mM; DTT: 2 mM; Tween-20: 0.01%), mixed thoroughly and spun down.
(§4) For positive controls, 2 μl of DMSO working solution were mixed with 6 μl CDK2/CycA/substrate working solution and 2 μl ATP working solution. Positive and negative controls were calculated from at least 8 different wells. The 384 well plates were mixed in a Teleshaker plate mixer (Beckman Coulter, Brea, Calif., USA) at 2000 rpm for 40 sec, and incubated for 1 h at room temperature before addition of 10 μl LANCE Detection Buffer (EDTA: […]; Eu-Anti-P-MBP: 4 nM) per well. Plates were mixed in a Teleshaker plate mixer (Beckman Coulter, Brea, Calif., USA) at 2000 rpm for […], followed by incubation with Detection Buffer for 1 h, and reading. […] IC50 values were determined from the sigmoidal dose response curves with the software Quattro Workflow (Quattro GmbH, Munich, Germany).

CDK9/Cyclin T1 = molecular target: T2, CDK9/Cyclin T1 (Homo sapiens, UniProt P50750); experiment: CDK9 Enzymatic Activity Assay (Lance Kinase Activity Assay, FRET); conditions: for CDK9: Selectivity of CDK7 inhibition over CDK9 inhibition [fold]: Table 5B, symbols per IC50 ranges of b615
T2 construct: purchased Invitrogen
Experimental: as §1, §2
CDK9 Enzymatic Activity Assay
as §3
as §4, with “CDK9/cyclin T1/substrate” for “CDK2/CycA/substrate”, “(1×; EDTA:” for “(EDTA:”

CDK7/CycH/Mat1 = molecular target: T3, CDK7/CycH/Mat1 (Homo sapiens, UniProt P50613); experiment: CDK7 Enzymatic Activity Assay (Lance Kinase Activity Assay, FRET)
T3 construct: purchased Carna
How it was run: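 TR-FRET (LANCE) kinase assay with ULight-MBP peptide substrate and Eu-labelled anti-phospho antibody; compounds in 8-point 1:3 series in HEPES 50 mM pH 7.5, MgCl2 10 mM, EGTA 1 mM, DTT 2 mM, 0.01% Tween-20.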

[1] = Table 5A, 25 μM ATP final, read-out: CDK7: IC50 [mM] for CDK7 inhibition (the above defined ranges apply)

T3 sequence (P50613 whole entry): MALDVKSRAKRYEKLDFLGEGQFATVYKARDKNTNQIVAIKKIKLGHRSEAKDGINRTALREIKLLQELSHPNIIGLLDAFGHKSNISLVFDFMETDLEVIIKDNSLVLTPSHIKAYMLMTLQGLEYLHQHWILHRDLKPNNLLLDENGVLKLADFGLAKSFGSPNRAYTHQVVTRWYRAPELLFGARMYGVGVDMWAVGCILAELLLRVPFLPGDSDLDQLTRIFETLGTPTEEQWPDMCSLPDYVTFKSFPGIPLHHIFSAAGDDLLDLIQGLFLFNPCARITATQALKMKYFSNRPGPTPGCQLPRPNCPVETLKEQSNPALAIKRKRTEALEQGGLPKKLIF
T3 sequence (P51946 whole entry partner): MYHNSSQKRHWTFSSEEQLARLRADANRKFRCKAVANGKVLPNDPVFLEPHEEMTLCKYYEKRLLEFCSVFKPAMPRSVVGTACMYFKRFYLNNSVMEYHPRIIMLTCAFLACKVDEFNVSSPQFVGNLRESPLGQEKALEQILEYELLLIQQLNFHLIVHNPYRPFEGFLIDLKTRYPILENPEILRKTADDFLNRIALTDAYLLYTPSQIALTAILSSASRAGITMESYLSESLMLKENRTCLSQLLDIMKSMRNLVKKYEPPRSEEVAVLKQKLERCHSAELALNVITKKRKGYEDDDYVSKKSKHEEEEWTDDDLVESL
T3 sequence (P51948 whole entry partner): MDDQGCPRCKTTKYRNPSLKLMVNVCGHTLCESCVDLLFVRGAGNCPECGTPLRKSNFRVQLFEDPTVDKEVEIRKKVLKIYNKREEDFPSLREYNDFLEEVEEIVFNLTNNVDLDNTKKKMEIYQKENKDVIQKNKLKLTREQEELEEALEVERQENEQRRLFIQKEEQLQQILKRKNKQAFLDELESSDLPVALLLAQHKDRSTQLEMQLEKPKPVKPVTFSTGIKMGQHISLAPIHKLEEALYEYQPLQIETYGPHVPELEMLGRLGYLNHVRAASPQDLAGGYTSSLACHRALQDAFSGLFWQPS
T2 sequence (P50750 whole entry): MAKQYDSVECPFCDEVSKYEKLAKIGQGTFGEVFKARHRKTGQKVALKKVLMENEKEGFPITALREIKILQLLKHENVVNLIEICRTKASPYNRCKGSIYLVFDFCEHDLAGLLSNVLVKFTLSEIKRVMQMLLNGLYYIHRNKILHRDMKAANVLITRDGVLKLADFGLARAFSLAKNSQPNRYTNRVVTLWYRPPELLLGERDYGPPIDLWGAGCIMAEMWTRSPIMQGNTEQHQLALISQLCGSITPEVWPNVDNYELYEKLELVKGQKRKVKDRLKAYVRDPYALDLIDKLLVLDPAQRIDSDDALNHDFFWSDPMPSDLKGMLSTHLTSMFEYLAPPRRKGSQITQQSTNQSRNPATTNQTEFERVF
T2 sequence (O60563 whole entry partner): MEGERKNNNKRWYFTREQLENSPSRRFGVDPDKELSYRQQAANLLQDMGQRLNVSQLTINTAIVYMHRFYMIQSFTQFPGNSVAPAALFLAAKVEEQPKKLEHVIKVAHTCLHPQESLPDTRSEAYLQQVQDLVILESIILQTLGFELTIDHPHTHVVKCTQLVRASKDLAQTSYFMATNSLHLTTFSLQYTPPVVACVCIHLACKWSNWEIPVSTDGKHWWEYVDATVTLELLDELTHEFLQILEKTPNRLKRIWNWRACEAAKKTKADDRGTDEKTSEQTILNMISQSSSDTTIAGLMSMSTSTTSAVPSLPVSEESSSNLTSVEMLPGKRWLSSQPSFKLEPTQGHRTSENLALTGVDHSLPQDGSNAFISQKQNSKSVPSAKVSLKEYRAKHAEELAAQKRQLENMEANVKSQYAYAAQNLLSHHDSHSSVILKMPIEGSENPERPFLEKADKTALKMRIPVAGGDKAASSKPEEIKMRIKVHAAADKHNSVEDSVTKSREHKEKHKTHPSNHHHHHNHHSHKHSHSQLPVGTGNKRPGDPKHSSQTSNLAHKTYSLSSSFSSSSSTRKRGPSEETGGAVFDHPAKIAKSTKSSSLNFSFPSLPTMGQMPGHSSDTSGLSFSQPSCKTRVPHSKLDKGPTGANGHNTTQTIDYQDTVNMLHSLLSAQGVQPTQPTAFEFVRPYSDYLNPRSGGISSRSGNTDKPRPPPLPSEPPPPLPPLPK

| CDK2 IC50 range class (CDK2/CycA) | CDK9: Selectivity of CDK7 inhibition over CDK9 inhibition [fold] (CDK9/Cyclin T1) | IC50 (CDK7/CycH/Mat1; [1]) [nM] | SMILES | also measured |
| --- | --- | --- | --- | --- |
| +++ (IC50>2500 nM) | +++ (IC50>2500 nM) | 30 to 100 | CC(C)c1cnn2c(N[C@@H](C)c3ccccc3OC(F)(F)F)nc(O[C@@H]3CCCNC3)nc12 [(VII-at), 8-isopropyl-2-((R)-piperidin-3-yloxy)-N-((S)-1-(2-(trifluoro-methoxy)phenyl)ethyl)pyrazolo[1,5-a][1,3,5]triazin-4-amine] |  |
| +++ (IC50>2500 nM) | +++ (IC50>2500 nM) | < 10 | CC(C)c1cnn2c(NC(C)c3cccc4cn[nH]c34)nc(O[C@@H]3CCCNC3)nc12 (stereo partly drawn) [(VII-cb), N-(1-(1H-indazol-7-yl)ethyl)-8-isopropyl-2-((R)-piperidin-3-yloxy)pyrazolo[1,5-a][1,3,5]triazin-4-amine] |  |
| +++ (IC50>2500 nM) | +++ (IC50>2500 nM) | < 10 | COc1cccc([C@H](C)Nc2nc(N3CCC4(CCCN4)CC3)nc3c(C(C)C)cnn23)c1 [(VIII-ai), (S)-8-isopropyl-N-(1-(3-methoxyphenyl)ethyl)-2-(1,8-diazaspiro[4.5]decan-8-yl)pyrazolo[1,5-a][1,3,5]triazin-4-amine] |  |
| +++ (IC50>2500 nM) | +++ (IC50>2500 nM) | 30 to 100 | COc1cccc([C@H](C)Nc2nc(CNC3CCNC3)nc3c(C(C)C)cnn23)c1 (stereo partly drawn) [(XXIX-4), 8-isopropyl-N-((S)-1-(3-methoxyphenyl)ethyl)-2-((pyrrolidin-3-ylamino)methyl)pyrazolo[1,5-a][1,3,5]triazin-4-amine] |  |
| +++ (IC50>2500 nM) | +++ (IC50>2500 nM) | > 100 | COC(=O)C(CN)Nc1nc(N[C@@H](C)c2cccc(OC)c2)n2ncc(C(C)C)c2n1 (stereo partly drawn) [(VIII-y), methyl 3-amino-2-((8-isopropyl-4-(((S)-1-(3-methoxyphenyl)ethyl)amino)pyrazolo[1,5-a][1,3,5]triazin-2-yl)amino)propanoate] |  |

The remaining lines, values behind:

| SMILES | CDK2 IC50 range class (CDK2/CycA) | CDK9: Selectivity of CDK7 inhibition over CDK9 inhibition [fold] (CDK9/Cyclin T1) | IC50 (CDK7/CycH/Mat1; [1]) [nM] | also measured |
| --- | --- | --- | --- | --- |
| COc1cccc([C@H](C)Nc2nc(N3CC(N4CCCC4=O)C3)nc3c(C(C)C)cnn23)c1 [(VIII-n), (S)-1-(1-(8-isopropyl-4-((1-(3-methoxyphenyl)ethyl)amino)pyrazolo[1,5-a][1,3,5]triazin-2-yl)azetidin-3-yl)pyrrolidin-2-one] | +++ (IC50>2500 nM) | +++ (IC50>2500 nM) | > 100 |  |
| COc1cccc([C@H](C)Nc2nc(OCCN3CCNCC3)nc3c(C(C)C)cnn23)c1 [(VII-bn), (S)-8-isopropyl-N-(1-(3-methoxyphenyl)ethyl)-2-(2-(piperazin-1-yl)ethoxy)pyrazolo[1,5-a][1,3,5]triazin-4-amine] | +++ (IC50>2500 nM) | +++ (IC50>2500 nM) | > 100 |  |
| COc1cccc([C@H](C)Nc2nc(C(=O)N(C)CCN3CCCC3)nc3c(C(C)C)cnn23)c1 [(XXVI-3), (S)-8-isopropyl-4-((1-(3-methoxyphenyl)ethyl)amino)-N-methyl-N-(2-(pyrrolidin-1-yl)ethyl)pyrazolo[1,5-a][1,3,5]triazine-2-carboxamide] | +++ (IC50>2500 nM) | +++ (IC50>2500 nM) | > 100 |  |
| CC(C)c1cnn2c(N[C@@H](C)c3ccccc3)nc(OC3CCC(N)CC3)nc12 (stereo partly drawn) [(VII-k), (S)-2-((4-aminocyclohexyl)oxy)-8-isopropyl-N-(1-phenylethyl)pyrazolo[1,5-a][1,3,5]triazin-4-amine] | +++ (IC50>2500 nM) | +++ (IC50>2500 nM) | < 10 |  |
| CC(C)c1cnn2c(N[C@H](C)c3cccc(Cl)c3)nc(OC3CCN(C)CC3)nc12 [(VII-ad), (R)-N-(1-(3-chlorophenyl)ethyl)-8-isopropyl-2-((1-methylpiperidin-4-yl)oxy)pyrazolo[1,5-a][1,3,5]triazin-4-amine] |  | +++ (IC50>2500 nM) | < 10 | Selectivity CDK7 over CDK2 [fold] (CDK2/CycA; Table 7, lower part): 968 fold; IC50 (CDK2/CycA; Table 7, upper part): > 2500 nM; Selectivity CDK7 over CDK9 [fold] (CDK9/Cyclin T1; Table 7, lower part): 815 fold; IC50 (CDK9/Cyclin T1; Table 7, upper part): > 2500 nM; IC50 (CDK7/CycH/Mat1; Table 7, lower part, read-out: IC50 [nM] CDK7): < 10 nM; IC50 (CDK7/CycH/Mat1; Table 7, upper part, read-out: IC50 [nM] CDK7): < 10 nM |
| CC(C)c1cnn2c(N[C@@H](C)c3ccccc3I)nc(O[C@@H]3CCCNC3)nc12 [(VII-au), N-((S)-1-(2-iodophenyl)ethyl)-8-isopropyl-2-((R)-piperidin-3-yloxy)pyrazolo[1,5-a][1,3,5]triazin-4-amine] | +++ (IC50>2500 nM) | +++ (IC50>2500 nM) | 10 to 30 |  |
| COc1cccc([C@H](C)Nc2nc(CN(C)CCN3CCCC3)nc3c(C(C)C)cnn23)c1 [(XXIX-6), (S)-8-isopropyl-N-(1-(3-methoxyphenyl)ethyl)-2-((methyl(2-(pyrrolidin-1-yl)ethyl)amino)methyl)pyrazolo[1,5-a][1,3,5]triazin-4-amine] | +++ (IC50>2500 nM) | +++ (IC50>2500 nM) | > 100 |  |
| COc1cccc([C@H](C)Nc2nc(N3CCCC34CCNCC4)nc3c(C(C)C)cnn23)c1 [(VIII-ak), (S)-8-isopropyl-N-(1-(3-methoxyphenyl)ethyl)-2-(1,8-diazaspiro[4.5]decan-1-yl)pyrazolo[1,5-a][1,3,5]triazin-4-amine] | +++ (IC50>2500 nM) | +++ (IC50>2500 nM) | 10 to 30 |  |
| CC(C)c1cnn2c(N[C@@H](C)c3ccccc3)nc(O[C@@H]3CCCNC3)nc12 [(VII-j), 8-isopropyl-N-((S)-1-phenylethyl)-2-((R)-piperidin-3-yloxy)pyrazolo[1,5-a][1,3,5]triazin-4-amine] | +++ (IC50>2500 nM) | +++ (IC50>2500 nM) | < 10 | Selectivity CDK7 over CDK2 [fold] (CDK2/CycA; Table 6, CDK2 activity as multiple of CDK7 activity): 733 fold; Selectivity CDK7 over CDK9 [fold] (CDK9/Cyclin T1; Table 6, CDK9 activity as multiple of CDK7 activity): 598 fold; multiplicity of the CDK2 and CDK9 activity in terms of the CDK7 activity (CDK7/CycH/Mat1; CDK2 and CDK9 IC50 relative to CDK7 IC50, highest of the two ('up to')): > 733 fold; IC50 (CDK7/CycH/Mat1; Table 6, read-out: IC50 [nM] CDK7): < 10 nM; selectivity for CDK7 against CDK2 and CDK9 (in words) (CDK7/CycH/Mat1; comparison of the enzymatic activity assays for CDK2, CDK7 and CDK9): selectively inhibits only CDK7 |
| COc1cccc([C@H](C)Nc2nc(CN(C)CC3CNC3)nc3c(C(C)C)cnn23)c1 [(XXIX-3), (S)-2-(((azetidin-3-ylmethyl)(methyl)amino)methyl)-8-isopropyl-N-(1-(3-methoxyphenyl)ethyl)pyrazolo[1,5-a][1,3,5]triazin-4-amine] | +++ (IC50>2500 nM) | +++ (IC50>2500 nM) | > 100 |  |
| COc1cccc([C@H](C)Nc2nc(N(C)CCN3CCCC3)nc3c(C(C)C)cnn23)c1 [(VIII-k), (S)-8-isopropyl-N4-(1-(3-methoxyphenyl)ethyl)-N2-methyl-N2-(2-(pyrrolidin-1-yl)ethyl)pyrazolo[1,5-a][1,3,5]triazine-2,4-diamine] | +++ (IC50>2500 nM) | +++ (IC50>2500 nM) | > 100 |  |
| COc1cccc([C@H](C)Nc2nc(CN3CCNCC3)nc3c(C(C)C)cnn23)c1 [(XXIX-1), (S)-8-isopropyl-N-(1-(3-methoxyphenyl)ethyl)-2-(piperazin-1-ylmethyl)pyrazolo[1,5-a][1,3,5]triazin-4-amine] | +++ (IC50>2500 nM) | +++ (IC50>2500 nM) | > 100 |  |
